US7358276B2, “2-Oxo-1-pyrrolidine derivatives, processes for preparing them and their uses” (UCB, S.A., priority 2000, dated 2008)

Experiments:
[1] = molecular target: T1, Levetiracetam Binding Site (LBS), rat cerebral cortex membranes (Rattus norvegicus, UniProt Q02563); assay: LBS binding assay (competitive binding, [3H]-2-[4-(3-azidophenyl)-2-oxo-1-pyrrolidinyl]butanamide); conditions: 4° C., 120 min
T1 construct: The crude membrane pellet obtained is resuspended in 50 mmol/l Tris-HCl (pH 7.4); from tissue; host or cells: rat cerebral cortex crude membranes (male Sprague-Dawley)
T1 sequence (Q02563 whole entry): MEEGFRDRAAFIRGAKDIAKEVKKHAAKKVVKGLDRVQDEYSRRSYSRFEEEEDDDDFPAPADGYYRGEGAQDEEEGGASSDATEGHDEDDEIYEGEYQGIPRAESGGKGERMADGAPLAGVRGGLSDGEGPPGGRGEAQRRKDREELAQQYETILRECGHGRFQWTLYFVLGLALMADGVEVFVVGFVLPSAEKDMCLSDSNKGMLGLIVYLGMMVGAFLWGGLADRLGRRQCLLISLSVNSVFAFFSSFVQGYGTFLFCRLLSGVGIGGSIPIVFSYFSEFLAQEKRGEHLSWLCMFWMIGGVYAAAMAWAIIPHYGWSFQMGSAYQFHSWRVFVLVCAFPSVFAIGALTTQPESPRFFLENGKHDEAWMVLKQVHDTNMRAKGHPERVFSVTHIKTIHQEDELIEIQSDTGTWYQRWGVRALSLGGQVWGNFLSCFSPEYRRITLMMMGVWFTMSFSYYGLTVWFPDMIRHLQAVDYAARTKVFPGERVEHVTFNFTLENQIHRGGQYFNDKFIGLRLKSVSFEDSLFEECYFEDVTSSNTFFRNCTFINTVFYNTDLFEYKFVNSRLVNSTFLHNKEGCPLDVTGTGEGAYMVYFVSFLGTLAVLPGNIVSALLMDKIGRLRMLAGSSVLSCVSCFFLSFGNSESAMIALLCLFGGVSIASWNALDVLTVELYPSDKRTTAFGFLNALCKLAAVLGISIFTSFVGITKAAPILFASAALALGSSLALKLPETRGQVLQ

[2] = tested on: audiogenic seizures in sound-susceptible mice; assay: Animal model of sound-susceptible mice (audiogenic seizures); assay type: in vivo; conditions: intraperitoneally 60 minutes before induction of audiogenic seizures; doses given in mol/kg
Text: The activity of the compounds of formula I, or their pharmaceutically acceptable salts, as anticonvulsants can be determined in the audiogenic seizures model. The objective of this test is to evaluate the anticonvulsant potential of a compound by means of audiogenic seizures induced in sound-susceptible mice, a genetic animal model with reflex seizures. In this model of primary generalised epilepsy, seizures are evoked without electrical or chemical stimulation and the seizure types are, at least in part, similar in their clinical phenomenology to seizures occurring in man (Löscher W. & Schmidt D., Epilepsy Res. (1998), 2, p. 145-181; Buchhalter J. R., Epilepsia (1993), 34, S31-S41). Results obtained with compounds of formula I are indicative of a strong pharmacological effect.
The objective of this test is to evaluate the anticonvulsant potency of a compound in sound-susceptible mice, a genetic animal model with reflex seizures. In this model of primary generalised epilepsy, seizures are evoked without electrical or chemical stimulation and the seizure types are, at least in part, similar in their clinical phenomenology to seizures occuring in man (Löscher W. & Schmidt D., Epilepsy Res. (1998), 2, 145-181; Buchhalter J. R., Epilepsia (1993), 34, S31-S41).
Male or female genetically sound-sensitive mice (14-28 g; N=10), derived from a DBA strain originally selected by Dr. Lehmann of the Laboratory of Acoustic Physiology (Paris) and bred in the UCB Pharma Sector husbandry unit since 1978, are used. The experimental design consisted of several groups, one group receiving the vehicle control and the other groups different doses of the test-compound. The compounds are administered intraperitoneally 60 minutes before the induction of audiogenic seizures.
For testing, the animals are placed in small cages, one mouse per cage, in a sound-attenuated chamber. After a period of orientation of 30 seconds, the acoustic stimulus (90 dB, 10-20 kHz) is delivered for 30 seconds via loudspeakers positioned above each cage. During this interval, the mice are observed and the presence of the 3 phases of the seizure activity namely wild running, clonic and tonic convulsions, is recorded. The proportion of mice protected against wild running, clonic and tonic convulsions, respectively, is calculated.
For active compounds, an ED50 value, i.e. the dose producing 50% protection relative to the control group, together with 95% confidence limits, was calculated using a Probit Analysis (SAS/STAT® Software, version 6.09, PROBIT procedure) of the proportions of protected mice for each of the 3 phases of the seizure activity.

[3] = A. J. GOWER et al., Eur. J. Pharmacol., 222, (1992), 193-203; cited from earlier work

C=C[C@H]1CC(=O)N([C@@H](CC)C(N)=O)C1 [Compound 93]
pKi (affinity for the levetiracetam binding site) [1]: Particular affinity
ED50 (dose producing 50% protection against audiogenic seizures) [2]: Particularly promising activity
melting point: 68.3 °C

CC[C@@H](C(N)=O)N1CC(CI)CC1=O (some centres unmarked) [Compound 27]
pKi (affinity for the levetiracetam binding site) [1]: Particular affinity
ED50 (dose producing 50% protection against audiogenic seizures) [2]: Particularly promising activity
melting point: 107.7 °C

CCC(C(N)=O)N1CC(c2ccc(Cl)c(Cl)c2)CC1=O (centres unmarked) [Compound 200]
pKi (affinity for the levetiracetam binding site) [1]: Particular affinity
ED50 (dose producing 50% protection against audiogenic seizures) [2]: Particularly promising activity
melting point: 154.4 °C

CC[C@@H](C(=O)NC)N1CC(CI)CC1=O (stereo partly drawn) [Compound 146, (2S)-2-[4-(iodomethyl)-2-oxo-1-pyrrolidinyl]-N-methylbutanamide]
pKi (affinity for the levetiracetam binding site) [1]: Particular affinity
ED50 (dose producing 50% protection against audiogenic seizures) [2]: Particularly promising activity
melting point: 66.6 °C

CC[C@@H](C(N)=O)N1CC(c2cc(Br)cc(Br)c2)CC1=O (some centres unmarked) [Compound 198]
pKi (affinity for the levetiracetam binding site) [1]: Particular affinity
ED50 (dose producing 50% protection against audiogenic seizures) [2]: Particularly promising activity
melting point: 118.6 °C

CCC(C(N)=O)N1CC(C=C(Br)Br)CC1=O (centres unmarked) [Compound 33]
pKi (affinity for the levetiracetam binding site) [1]: Particular affinity
ED50 (dose producing 50% protection against audiogenic seizures) [2]: Particularly promising activity
melting point: 134.8 °C

CC[C@@H](C(N)=O)N1CC(CCC(F)(F)F)CC1=O (some centres unmarked) [Compound 215]
pKi (affinity for the levetiracetam binding site) [1]: Particular affinity
ED50 (dose producing 50% protection against audiogenic seizures) [2]: Particularly promising activity
melting point: 115.9 °C

C=C[C@@H]1CC(=O)N([C@@H](CC)C(N)=O)C1 [Compound 92]
pKi (affinity for the levetiracetam binding site) [1]: Particular affinity
ED50 (dose producing 50% protection against audiogenic seizures) [2]: Particularly promising activity
melting point: 79 °C

CC[C@@H](C(N)=O)N1CCCC1=O [Levetiracetam, (S)-α-ethyl-2-oxo-1-pyrrolidine acetamide]
activity in the treatment of epilepsy [3]: effective in the treatment of epilepsy

CC[C@@H](C(N)=O)N1CC(CC(C)=O)CC1=O (some centres unmarked) [Compound 229]
pKi (affinity for the levetiracetam binding site) [1]: Particular affinity
ED50 (dose producing 50% protection against audiogenic seizures) [2]: Particularly promising activity
melting point: 90.6 °C

CC[C@@H](C(N)=O)N1CC(c2cccs2)CC1=O (stereo partly drawn) [Compound 71, (2S)-2-[2-oxo-4-(2-thienyl)-1-pyrrolidinyl]butanamide]
pKi (affinity for the levetiracetam binding site) [1]: Particular affinity
ED50 (dose producing 50% protection against audiogenic seizures) [2]: Particularly promising activity
melting point: 69.3 °C

CC[C@@H](C(N)=O)N1CC(c2cccc(N=[N+]=[N-])c2)CC1=O (some centres unmarked) [Compound 87]
pKi (affinity for the levetiracetam binding site) [1]: Particular affinity
ED50 (dose producing 50% protection against audiogenic seizures) [2]: Particularly promising activity
melting point: 98 °C

CC[C@@H](C(N)=O)N1CC(c2ccccc2)CC1=O (some centres unmarked) [Compound 23]
pKi (affinity for the levetiracetam binding site) [1]: Particular affinity
ED50 (dose producing 50% protection against audiogenic seizures) [2]: Particularly promising activity
melting point: 92.4 °C

CC[C@@H](C(N)=O)N1CC(c2cccc(N=[N+]=[N-])c2)CC1=O (single isomer, unassigned) [Compound 86]
pKi (affinity for the levetiracetam binding site) [1]: Particular affinity
ED50 (dose producing 50% protection against audiogenic seizures) [2]: Particularly promising activity
melting point: 94.5 °C

CC[C@@H](C(N)=O)N1CC(CN=[N+]=[N-])CC1=O (stereo partly drawn) [Compound 32, (2S)-2-[4-(azidomethyl)-2-oxo-1-pyrrolidinyl]butanamide]
pKi (affinity for the levetiracetam binding site) [1]: Particular affinity
ED50 (dose producing 50% protection against audiogenic seizures) [2]: Particularly promising activity
melting point: 84.8 °C

CCC(C(N)=O)N1CC(c2nccs2)CC1=O (centres unmarked) [Compound 64]
pKi (affinity for the levetiracetam binding site) [1]: Particular affinity
ED50 (dose producing 50% protection against audiogenic seizures) [2]: Particularly promising activity
melting point: 94.3 °C

CCCCC1CC(=O)N(C(CC)C(N)=O)C1 (centres unmarked) [Compound 164]
pKi (affinity for the levetiracetam binding site) [1]: Particular affinity
ED50 (dose producing 50% protection against audiogenic seizures) [2]: Particularly promising activity
melting point: 108.8 °C

CC[C@@H](C(N)=O)N1CC(Cn2cnnn2)CC1=O (stereo partly drawn) [Compound 40, (2S)-2-[2-oxo-4-(1H-tetrazol-1-ylmethyl)-1-pyrrolidinyl]butanamide]
pKi (affinity for the levetiracetam binding site) [1]: Particular affinity
ED50 (dose producing 50% protection against audiogenic seizures) [2]: Particularly promising activity
melting point: 82.3 °C

CCC(C(N)=O)N1CC(c2ccc(Cl)cc2Cl)CC1=O (centres unmarked) [Compound 188]
pKi (affinity for the levetiracetam binding site) [1]: Particular affinity
ED50 (dose producing 50% protection against audiogenic seizures) [2]: Particularly promising activity
melting point: 154.7 °C

CC[C@H](C(N)=O)N1CCCC1=O [(R)-α-ethyl-2-oxo-1-pyrrolidine acetamide]
activity in the treatment of epilepsy [3]: completely lacks activity

CCC(C(N)=O)N1CC(c2cccnc2)CC1=O (centres unmarked) [Compound 96]
pKi (affinity for the levetiracetam binding site) [1]: Particular affinity
ED50 (dose producing 50% protection against audiogenic seizures) [2]: Particularly promising activity
melting point: 104.3 °C

CC[C@@H](C(N)=O)N1CC(c2ccccc2)CC1=O (some centres unmarked) [Compound 22]
pKi (affinity for the levetiracetam binding site) [1]: Particular affinity
ED50 (dose producing 50% protection against audiogenic seizures) [2]: Particularly promising activity
melting point: 89 °C

CCC(C(N)=O)N1CC(CCCc2ccccc2)CC1=O (centres unmarked) [Compound 197]
pKi (affinity for the levetiracetam binding site) [1]: Particular affinity
ED50 (dose producing 50% protection against audiogenic seizures) [2]: Particularly promising activity
melting point: 92.5 °C

CCC(C(N)=O)N1CC(c2ccc(Cl)c(Cl)c2)CC1=O (centres unmarked) [Compound 187]
pKi (affinity for the levetiracetam binding site) [1]: Particular affinity
ED50 (dose producing 50% protection against audiogenic seizures) [2]: Particularly promising activity
melting point: 177.9 °C

CC[C@@H](C(N)=O)N1CC(c2ccc(N=[N+]=[N-])cc2)CC1=O (some centres unmarked) [Compound 81]
pKi (affinity for the levetiracetam binding site) [1]: Particular affinity
ED50 (dose producing 50% protection against audiogenic seizures) [2]: Particularly promising activity
melting point: 91.4 °C

CCC(C(N)=O)N1CC(c2ccccc2F)CC1=O (centres unmarked) [Compound 211]
pKi (affinity for the levetiracetam binding site) [1]: Particular affinity
ED50 (dose producing 50% protection against audiogenic seizures) [2]: Particularly promising activity
melting point: 150.9 °C

CCC(C(N)=O)N1CC(c2ccccc2Br)CC1=O (centres unmarked) [Compound 95]
pKi (affinity for the levetiracetam binding site) [1]: Particular affinity
ED50 (dose producing 50% protection against audiogenic seizures) [2]: Particularly promising activity
melting point: 165.4 °C

CC[C@@H](C(N)=O)N1CC(CI)CC1=O (stereo partly drawn) [Compound 10, (2S)-2-[4-(iodomethyl)-2-oxo-1-pyrrolidinyl]butanamide]
pKi (affinity for the levetiracetam binding site) [1]: Particular affinity
ED50 (dose producing 50% protection against audiogenic seizures) [2]: Particularly promising activity
melting point: 91.4 °C

CC[C@@H](C(N)=O)N1CC(CC2CC2)CC1=O (some centres unmarked) [Compound 212]
pKi (affinity for the levetiracetam binding site) [1]: Particular affinity
ED50 (dose producing 50% protection against audiogenic seizures) [2]: Particularly promising activity
melting point: 104.4 °C

CCC(C(N)=O)N1CC(c2cccc(C)c2)CC1=O (centres unmarked) [Compound 219]
pKi (affinity for the levetiracetam binding site) [1]: Particular affinity
ED50 (dose producing 50% protection against audiogenic seizures) [2]: Particularly promising activity
melting point: 79.4 °C
